Data on four compounds can be found in ChEMBL document CHEMBL5634128, “Development of chalcone-like derivatives and their biological and mechanistic investigations as novel influenza nuclear export inhibitors” (Eur J Med Chem, 2023).

One data set concerns Fibroblast. As to the kind of experiment: (§1) Cytotoxicity against chicken embryo fibroblast cells assessed as reduction in cell growth at 50 uM by CCK-8 assay relative to control. The class given is toxicity, cell-based, Gallus gallus. Details: Activity: scale not given: the % may be the effect or the level left. The note with it: fibroblast, 50 µM.
Data set [1] concerns Influenza A virus. As to the kind of experiment: Anti-influenza activity against Influenza A virus A/Goose/Guangdong/SH7/2013 (H5N1) infected in chicken embryo fibroblast assessed as inhibition of virus-induced cytopathic effect. The class given is functional.
Data set [2] relates to Influenza A virus. As to the kind of experiment: Anti-influenza activity against Influenza A virus H5N8 infected in chicken embryo fibroblast assessed as reduction in viral growth. The class given is functional, organism-based.
Data set [3] in a line: as §1. The note with it: chicken embryo fibroblast cells, read-out: Activity. More on the design: Activity: scale not given: the % may be the effect or the level left. Format: toxicity, cell-based, Gallus gallus.
Data set [4] deals with Influenza A virus. As to the kind of experiment: Anti-influenza activity against Influenza A virus H5N1 infected in chicken embryo fibroblast assessed as reduction in viral growth. The class given is functional, organism-based.
In data set [5] the test system is Influenza A virus. As to the kind of experiment: Anti-influenza activity against Influenza A virus pdm09 infected in chicken embryo fibroblast assessed as reduction in viral growth. The class given is functional, organism-based.
Data set [6] relates to Influenza A virus. As to the kind of experiment: Anti-influenza activity against Influenza A virus A/Brisbane/10/2007 infected in chicken embryo fibroblast assessed as reduction in viral growth. The class given is functional, organism-based. Particulars: A/Brisbane/10/2007, Fibroblast.
The test system of data set [7] is Influenza A virus. As to the kind of experiment: Anti-influenza activity against Influenza A virus A/PR/8/34 infected in chicken embryo fibroblast assessed as reduction in viral growth. The class given is functional, organism-based. The note with it: A/PR/8/34, Fibroblast.
In data set [8] the test system is Influenza A virus. As to the kind of experiment: Anti-influenza activity against Influenza A virus B/Yamagata infected in chicken embryo fibroblast assessed as reduction in viral growth. The class given is functional, organism-based.
A short description of data set [9]: Cytotoxicity against chicken embryo fibroblast cells assessed as reduction in cell growth by CCK-8. The class given is toxicity, cell-based, Gallus gallus.
In data set [10] the test system is Influenza A virus. As to the kind of experiment: Anti-influenza activity against Influenza A virus B/Victoria infected in chicken embryo fibroblast assessed as reduction in viral growth. The class given is functional, organism-based.
Data set [11] has as its system Influenza A virus. As to the kind of experiment: Anti-influenza activity against Influenza A virus A/Goose/Guangdong/SH7/2013 (H5N1) infected in chicken embryo fibroblast at MOI 1 assessed as reduction in NP expression in nucleus at 10 uM measured after 10 hr post infection by Western blot analysis. Format: functional, organism-based. On the technique in general: Immunoblotting shows a protein as a band on a membrane.

Data set [12] deals with Influenza A virus. As to the kind of experiment: Anti-influenza activity against Influenza A virus A/Goose/Guangdong/SH7/2013 (H5N1) infected in chicken embryo fibroblast at MOI 1 assessed as decrease in ratio of cytoplasmic to nuclear NP level at 10 uM measured after 10 hr post infection by Western blot analysis. Format: functional, organism-based.
For data set [13], the system named is Influenza A virus. As to the kind of experiment: Anti-influenza activity against Influenza A virus A/Goose/Guangdong/SH7/2013 (H5N1) infected in chicken embryo fibroblast at MOI 1 assessed as distribution of NP in nucleus at 10 uM measured after 10 hr post infection by DAPI staining based assay. Format: functional, organism-based.
In a further data set the target is Nucleoprotein (Influenza A virus (strain A/Wilson-Smith/1933 H1N1), UniProt P15682). As to the kind of experiment: Binding affinity to influenza A virus Nucleoprotein assessed as dissociation constant by SPR analysis. Background: SPR reads the build-up and loss of mass on a sensor chip optically.
Data set [14] relates to Influenza A virus. As to the kind of experiment: Anti-influenza activity against Influenza A virus A/Goose/Guangdong/SH7/2013 (H5N1) infected in chicken embryo fibroblast at MOI 1 assessed as reduction in NP expression in cytoplasm at 10 uM measured after 10 hr post infection by Western blot analysis. Format: functional, organism-based.
Data set [15] concerns the target Exportin-1 (Homo sapiens) (UniProt O14980). As to the kind of experiment: Inhibition of CRM1-mediated nuclear export in human A549 cells assessed as distribution of GFP-tagged AID in nucleus at 20 uM administered for 12 hrs and measured after 24 hrs by fluorescence microscopy analysis. The class given is cell-based. The note with it: time 36.0 hrs.
The nature of data set [16]: Binding affinity to influenza A virus NS2 assessed as dissociation constant by SPR analysis.
For data set [17], the target named is Exportin-1 (Homo sapiens) (UniProt O14980). As to the kind of experiment: Inhibition of CRM1-mediated nuclear export in human A549 cells assessed as distribution of GFP-tagged AID in cytoplasm at 20 uM administered for 12 hrs and measured after 24 hrs by fluorescence microscopy analysis. The class given is cell-based.
The nature of data set [18]: Binding affinity to influenza A virus M1 assessed as dissociation constant by SPR analysis.
Data set [19] concerns the target Single-stranded DNA cytosine deaminase (Homo sapiens) (UniProt Q9GZX7). As to the kind of experiment: Induction of GFP-tagged AID degradation in human A549 cells at 20 uM. Format: cell-based.

Several values for one entry are separate records, joined by “and”; a condition that tells them apart may be missing. Identical values can stand only once. Activity calls are given as the source filed them. No cut-off for these calls is given here.

Exportin-1 (Homo sapiens), sequence (O14980 whole entry): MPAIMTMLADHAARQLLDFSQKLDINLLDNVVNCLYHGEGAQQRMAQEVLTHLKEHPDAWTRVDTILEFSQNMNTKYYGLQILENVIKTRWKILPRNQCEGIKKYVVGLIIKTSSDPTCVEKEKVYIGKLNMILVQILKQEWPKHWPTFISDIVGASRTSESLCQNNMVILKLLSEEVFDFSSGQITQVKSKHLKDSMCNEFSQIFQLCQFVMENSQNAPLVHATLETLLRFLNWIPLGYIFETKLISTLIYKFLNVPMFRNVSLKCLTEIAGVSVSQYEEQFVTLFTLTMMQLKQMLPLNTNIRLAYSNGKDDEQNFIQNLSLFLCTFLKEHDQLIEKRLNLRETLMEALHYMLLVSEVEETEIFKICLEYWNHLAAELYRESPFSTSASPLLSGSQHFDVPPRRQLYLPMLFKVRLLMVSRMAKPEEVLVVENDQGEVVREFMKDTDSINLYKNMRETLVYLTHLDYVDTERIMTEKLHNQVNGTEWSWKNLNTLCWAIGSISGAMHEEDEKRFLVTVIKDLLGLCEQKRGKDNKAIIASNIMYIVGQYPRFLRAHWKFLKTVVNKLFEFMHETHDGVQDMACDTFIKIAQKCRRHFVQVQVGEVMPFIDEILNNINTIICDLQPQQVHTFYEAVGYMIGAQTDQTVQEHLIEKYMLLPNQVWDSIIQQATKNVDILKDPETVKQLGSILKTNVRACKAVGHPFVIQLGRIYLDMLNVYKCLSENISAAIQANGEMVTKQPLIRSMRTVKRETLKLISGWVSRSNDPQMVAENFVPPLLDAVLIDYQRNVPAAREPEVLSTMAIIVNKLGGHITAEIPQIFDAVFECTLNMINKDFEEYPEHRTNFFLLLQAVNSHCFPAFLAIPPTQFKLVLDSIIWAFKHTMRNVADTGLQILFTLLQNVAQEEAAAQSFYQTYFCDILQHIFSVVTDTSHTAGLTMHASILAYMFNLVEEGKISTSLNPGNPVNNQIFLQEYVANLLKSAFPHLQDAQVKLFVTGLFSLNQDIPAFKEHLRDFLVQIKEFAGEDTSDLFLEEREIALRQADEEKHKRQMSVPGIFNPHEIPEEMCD
Nucleoprotein, sequence (P15682 whole entry): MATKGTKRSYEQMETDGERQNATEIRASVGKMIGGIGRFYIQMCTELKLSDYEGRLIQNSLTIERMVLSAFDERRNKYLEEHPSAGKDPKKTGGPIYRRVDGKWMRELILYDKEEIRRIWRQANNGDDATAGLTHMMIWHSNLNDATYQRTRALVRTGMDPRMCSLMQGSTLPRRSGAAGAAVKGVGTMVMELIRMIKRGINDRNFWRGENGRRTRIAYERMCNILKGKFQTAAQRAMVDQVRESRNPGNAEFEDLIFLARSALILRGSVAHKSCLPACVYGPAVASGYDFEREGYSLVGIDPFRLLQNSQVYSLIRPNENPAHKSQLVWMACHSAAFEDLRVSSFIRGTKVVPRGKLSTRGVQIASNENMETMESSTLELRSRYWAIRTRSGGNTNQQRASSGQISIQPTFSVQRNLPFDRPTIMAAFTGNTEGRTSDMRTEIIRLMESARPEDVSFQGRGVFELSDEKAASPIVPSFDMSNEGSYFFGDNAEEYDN
Single-stranded DNA cytosine deaminase (Homo sapiens), sequence (Q9GZX7 whole entry): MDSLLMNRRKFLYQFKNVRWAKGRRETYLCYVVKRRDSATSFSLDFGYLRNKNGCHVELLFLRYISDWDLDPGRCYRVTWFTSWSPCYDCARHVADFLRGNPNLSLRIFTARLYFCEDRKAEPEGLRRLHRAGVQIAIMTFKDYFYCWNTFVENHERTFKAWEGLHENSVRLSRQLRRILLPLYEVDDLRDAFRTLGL

Consider `COc1cccc(OC)c1/C=C/C(=O)/C=C/c1ccc(-c2ccncc2)cc1`, for which, in the data set with Fibroblast, the Activity is 153.71%. In addition, the “inhibition (INH)” value with Influenza A virus [1] is reported as 26.05%.

As for `CCC(CC)O[C@@H]1C=C(C(=O)O)C[C@H](N)[C@H]1NC(C)=O` [OSELTAMIVIR CARBOXYLATE], the EC50 (as a rule, the concentration at which the effect is half-maximal) in the data set with Influenza A virus [2] is 6.49 µM; in the data set with Influenza A virus [4], 5.7 µM; with Influenza A virus [5] it was greater than 100 µM; in the data set on Influenza A virus [6], 1.08 µM; with Influenza A virus [7] it was 3.08 µM; with Influenza A virus [8], 0.98 µM. For the same compound, the EC50 in the data set with Influenza A virus [10] turned out to be 2.43 µM. In addition, the percent cell viability relative to control at 50 µM in data set [3] came to 100%. In addition, in the data set with Fibroblast, the Activity is listed as 105.08%. In data set [9], the CC50 (as a rule, the concentration at which the toxic effect on the cells reaches its halfway point) was greater than 100 µM. Further, in the data set on Influenza A virus [1], the “inhibition (INH)” value was 98.5% and 97.3%.

Consider `COc1cccc(OC)c1/C=C/C(=O)/C=C/c1ccc(N2CCOCC2)cc1`, for which the result (with Influenza A virus [11]; in the data set on Influenza A virus [12]; in the data set with Influenza A virus [13]; in the data set on Influenza A virus [14]; in [19]) was Active. The EC50 in the data set on Influenza A virus [2] is 9.6 µM; in the data set on Influenza A virus [4], 14.9 µM; with Influenza A virus [5], 4.56 µM; in the data set with Influenza A virus [6], 3.69 µM; in the data set on Influenza A virus [7] it was 7.31 µM; with Influenza A virus [8] it was 4.82 µM. In addition, in the data set on Influenza A virus [10], the EC50 is 3.13 µM. The Kd (commonly a measure of binding affinity in units of concentration) on Nucleoprotein is 0.239 µM; in data set [16] it was “Not Active”; in data set [18], “Not Active”. Further, the percent cell viability relative to control at 50 µM in data set [3] was 102%. Further, the inhibition entry in data set [15] and in data set [17] was “inactive” each time. Besides, in data set [9], the CC50 was greater than 100 µM. The “inhibition (INH)” value in the data set on Influenza A virus [1] is given as 96.62%.

Regarding `CCOc1ccc(/C=C/C(=O)/C=C/c2c(OC)cccc2OC)cc1`, the result (with Influenza A virus [11]; in the data set on Influenza A virus [12]; with Influenza A virus [13]; in the data set with Influenza A virus [14]; in data set [19]) was Active. The half-maximal effective concentration (EC50) came out at 9.6 µM in the data set on Influenza A virus [2]; 14.9 µM in the data set with Influenza A virus [4]; 4.56 µM in the data set on Influenza A virus [5]; 3.69 µM in the data set with Influenza A virus [6]; 7.31 µM in the data set with Influenza A virus [7]; 4.82 µM in the data set on Influenza A virus [8]. Further, in the data set with Influenza A virus [10], the EC50 turned out to be 3.13 µM. In addition, the Kd on Nucleoprotein was 0.239 µM; in data set [16], “Not Active”; in data set [18], “Not Active”. In addition, the percent cell viability relative to control at 50 µM in [3] was 117%. Moreover, the inhibition result in data set [15] and in data set [17] was “inactive” throughout. For the same compound, the half-maximal cytotoxic concentration (CC50) in [9] was greater than 100 µM. In addition, the “inhibition (INH)” value with Influenza A virus [1] is listed as 51.33%.
